PMC4810412, “Identification of a Fragment-Based Scaffold that Inhibits the Glycosyltransferase WaaG from Escherichia coli” (Antibiotics, 2016)
pIC50: −log10 of the molar value.

Molecular target: WaaG (α-1,3-glucosyltransferase I) (Escherichia coli, UniProt P25740)
Assay: […]-glucose transfer from UDP-Glc to truncated LPS, SDS-PAGE autoradiography, dose-response
Type: biochemical

WaaG (α-1,3-glucosyltransferase I), sequence (P25740 whole entry, the tested form may be a part): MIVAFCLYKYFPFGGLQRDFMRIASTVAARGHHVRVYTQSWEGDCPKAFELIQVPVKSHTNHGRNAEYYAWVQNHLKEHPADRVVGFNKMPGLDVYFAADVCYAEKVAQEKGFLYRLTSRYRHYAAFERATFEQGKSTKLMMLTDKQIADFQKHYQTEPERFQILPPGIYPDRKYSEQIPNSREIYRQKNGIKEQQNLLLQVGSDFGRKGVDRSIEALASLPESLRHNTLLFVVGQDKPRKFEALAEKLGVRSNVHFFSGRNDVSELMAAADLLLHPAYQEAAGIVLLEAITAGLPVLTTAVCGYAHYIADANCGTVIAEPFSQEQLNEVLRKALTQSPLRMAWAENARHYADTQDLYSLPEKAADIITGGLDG

Nc1nc(-c2ccc(O)cc2)cs1 [L1, 4-(2-amino-1,3-thiazol-4-yl)phenol]
pIC50: 3.00
